In patent US9409952B2, “Peptide-compound cyclization method” (Chugai Seiyaku Kabushiki Kaisha, priority 2011, dated 2016):
Where two headings read alike, the source gives them in different places. Starred links: 1 amine or outer side, 2 acyl side, 3 side chain; linkers in the order of their positions; H or OH if unused. Positions of bridges follow the written chain, without caps; N, C: chain ends. Non-standard residues stand in square brackets, D forms with d. Residues, ends and D or L forms follow the SMILES beside them. *: point of attachment. Phe(4-(CH2)5CO) = O=C([C@H](Cc1ccc(CCCCCC(=O)[*:3])cc1)N[*:1])[*:2]; Phe(3-(CH2)4CO) = O=C([C@H](Cc1cccc(CCCCC(=O)[*:3])c1)N[*:1])[*:2]; Phe(4-CF3) = N[C@@H](Cc1ccc(C(F)(F)F)cc1)C(=O)O; NMePhe(3-Cl) = CN[C@@H](Cc1cccc(Cl)c1)C(=O)O; NEtPhe = CCN[C@@H](Cc1ccccc1)C(=O)O; NMeF = CN[C@@H](Cc1ccccc1)C(=O)O; NMeI = CC[C@H](C)[C@H](NC)C(=O)O; NMeL = CN[C@@H](CC(C)C)C(=O)O; NMeV = CN[C@H](C(=O)O)C(C)C; NMeA = CN[C@@H](C)C(=O)O; Piperidide = C1CCN(*)CC1; β3hA = C[C@H](N)CC(=O)O; Sar = CNCC(=O)O; tBu = CC(C)(C)*

Key:
[1] = PAMPA (parallel artificial membrane permeability assay); type: in vitro ADME; conditions: for Papp at 18 hours, 50 µM: PAMPA
Method in brief: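 Artificial membrane was 10% (w/v) egg lecithin plus 0.5% (w/v) cholesterol in dodecane on a PVDF filter. A 10 mM DMSO stock was added at 0.5% (v/v) to donor buffer (50 mM MOPSO, pH 6.5, 5.0% glycocholic acid). After 18 h at 37 °C, LC/MS or LC/UV gave donor and acceptor levels for Pe.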

[2] = Metabolic stability in human hepatic microsome; type: in vitro ADME; conditions: microsomes
[3] = membrane permeation rate (Pe), 50 mM MOPSO buffer pH 6.5 with 5.0% glycocholic acid, 37° C., 18 hours, read-out: iPAMPA Pe
[4] = pH 7.4, human hepatic microsome, NADPH(+), read-out: CL NADPH(+)

Structure (SMILES) | Papp at 18 hours, 50 µM [1, 3] | microsomal CLint at 1 uM [2, 4] | Papp at 18 hours, 50 µM ([1]; pH 6.5) | microsomal CLint at 1 uM ([2]; human, pH 7.4, CL NADPH(+)) | iPAMPA Pe ([1]; membrane permeation rate (Pe), 50 mM MOPSO buffer pH 6.5 with 5.0% glycocholic acid, 37° C., 18 hours)
CC[C@H](C)[C@@H]1NC(=O)[C@H](CC(C)C)N(C)C(=O)[C@@H](C(C)C)NC(=O)C[C@H](C)NC(=O)[C@H](CC(C)C)N(C)C(=O)[C@H](C)N(C)C(=O)[C@H]([C@@H](C)O)NC(=O)[C@H](Cc2cccc(Cl)c2)N(C)C(=O)[C@H](C)N(C)C1=O [DP-828] (cyclo(I[NMeA][NMePhe(3-Cl)]T[NMeA][NMeL][β3hA][dV][NMeL])) | 42 ×10⁻⁶ cm/s | 154 µL/min/mg | – | – | –
CC(C)C[C@@H]1NC(=O)[C@H](C)NC(=O)C[C@H](C)NC(=O)[C@H](C(C)C)N(C)C(=O)[C@H](CC(C)C)N(C)C(=O)[C@H]([C@@H](C)O)NC(=O)[C@H](Cc2ccc(C(F)(F)F)cc2)NC(=O)[C@H](C)N(C)C(=O)CNC(=O)[C@H](CC(C)C)N(C)C(=O)[C@H](C)N(C)C1=O [DP-829] (cyclo(AL[NMeA][NMeL]G[NMeA][Phe(4-CF3)]T[NMeL][NMeV][β3hA])) | 21 ×10⁻⁶ cm/s | 65 µL/min/mg | – | – | –
C=C1CCC(=O)N(C)[C@@H](Cc2ccccc2)C(=O)N(C)CC(=O)N(C)[C@@H](CC(C)C)C(=O)N[C@@H]([C@@H](C)O)C(=O)N(C)[C@@H](C)C(=O)N(C)[C@@H](CC(C)C)C(=O)N(C)[C@@H]([C@@H](C)CC)C(=O)N[C@@H](COC(C)(C)C)C(=O)N[C@H](C(=O)N2CCCCC2)Cc2cccc1c2 [DP-831] | – | – | 55 ×10⁻⁶ cm/s | 683 µL/min/mg | –
C=C1CCC(=O)N(C)[C@@H](Cc2ccccc2)C(=O)N(C)[C@@H](CC(C)C)C(=O)N[C@@H]([C@@H](C)CC)C(=O)N(C)[C@@H](C)C(=O)N(C)[C@@H](Cc2ccccc2)C(=O)N[C@@H]([C@@H](C)O)C(=O)N(C)[C@@H](C)C(=O)N(C)[C@@H](CC(C)C)C(=O)N[C@H](C(=O)N2CCCCC2)Cc2cccc1c2 [DP-834] | – | – | 14 ×10⁻⁶ cm/s | 501 µL/min/mg | –
CC[C@H](C)[C@@H]1NC(=O)[C@H](CC(C)C)N(C)C(=O)[C@H](Cc2ccccc2)N(C)C(=O)CCCCc2cccc(c2)C[C@@H](C(=O)N2CCCCC2)NC(=O)[C@H](CC(C)C)N(C)C(=O)[C@H](C)N(C)C(=O)[C@H]([C@@H](C)O)NC(=O)[C@H](Cc2ccccc2)N(C)C(=O)[C@H](C)N(C)C1=O [DP-836] ([NMeF][NMeL]I[NMeA][NMeF]T[NMeA][NMeL][Phe(3-(CH2)4CO)]-Piperidide; lactam N-9) | 18 ×10⁻⁶ cm/s | 552 µL/min/mg | – | – | –
CC(C)C[C@H]1C(=O)N[C@@H](COC(C)(C)C)C(=O)N(C)[C@@H](CC(C)C)C(=O)N[C@H](C(=O)N2CCCCC2)Cc2cccc(c2)CCCCC(=O)N(C)[C@@H](C)C(=O)N(C)[C@@H](Cc2ccccc2)C(=O)N(C)[C@@H](CC(C)C)C(=O)N[C@@H]([C@@H](C)O)C(=O)N(C)CC(=O)N1C [DP-838] ([NMeA][NMeF][NMeL]T[Sar][NMeL]S(tBu)[NMeL][Phe(3-(CH2)4CO)]-Piperidide; lactam N-9) | 54 ×10⁻⁶ cm/s | 224 µL/min/mg | – | – | –
CC[C@H](C)[C@H]1C(=O)N(C)[C@@H](CC(C)C)C(=O)N[C@H](C(=O)N2CCCCC2)Cc2cccc(c2)CCCCC(=O)N[C@@H]([C@@H](C)O)C(=O)N(C)[C@@H](C)C(=O)N(C)[C@@H](Cc2ccccc2)C(=O)N(C)[C@@H](Cc2ccccc2)C(=O)N(C)[C@@H](CC(C)C)C(=O)NCC(=O)N1C [DP-840] (T[NMeA][NMeF][NMeF][NMeL]G[NMeI][NMeL][Phe(3-(CH2)4CO)]-Piperidide; lactam N-9) | 64 ×10⁻⁶ cm/s | 357 µL/min/mg | – | – | –
CC(C)C[C@H]1C(=O)N[C@H](C(=O)N2CCCCC2)Cc2cccc(c2)CCCCC(=O)N[C@@H]([C@@H](C)O)C(=O)N(C)[C@@H](C)C(=O)N(C)[C@@H](Cc2ccccc2)C(=O)NCC(=O)N(C)[C@@H](Cc2ccccc2)C(=O)N(C)[C@@H](CC(C)C)C(=O)N(C)[C@@H](CC(C)C)C(=O)N1C [DP-843] (T[NMeA][NMeF]G[NMeF][NMeL][NMeL][NMeL][Phe(3-(CH2)4CO)]-Piperidide; lactam N-9) | 31 ×10⁻⁶ cm/s | 505 µL/min/mg | – | – | –
CC(C)C[C@H]1C(=O)N[C@H](C(=O)N2CCCCC2)Cc2cccc(c2)CCCCC(=O)N(C)[C@@H](Cc2ccccc2)C(=O)NCC(=O)N(C)[C@@H](Cc2ccccc2)C(=O)N(C)[C@@H](CC(C)C)C(=O)N(C)[C@@H](CC(C)C)C(=O)N1C [DP-844] ([NMeF]G[NMeF][NMeL][NMeL][NMeL][Phe(3-(CH2)4CO)]-Piperidide; lactam N-7) | – | – | 11 ×10⁻⁶ cm/s | 356 µL/min/mg | –
C=C1CCC(=O)N[C@@H](C)C(=O)N(C)[C@@H](CC(C)C)C(=O)N[C@@H]([C@@H](C)CC)C(=O)N(C)[C@@H](Cc2ccccc2)C(=O)N(C)[C@@H](CC(C)C)C(=O)N(C)[C@@H](C(C)C)C(=O)N[C@@H](Cc2ccccc2)C(=O)N[C@@H]([C@@H](C)O)C(=O)N[C@H](C(=O)N2CCCCC2)Cc2cccc1c2 [DP-846] | – | – | 3.4 ×10⁻⁶ cm/s | 310 µL/min/mg | –
CC[C@H](C)[C@H]1C(=O)N(C)[C@@H](CC(C)C)C(=O)N(C)[C@@H](Cc2ccccc2)C(=O)N[C@@H](CC(C)C)C(=O)N(C)[C@@H](C(C)C)C(=O)N[C@@H](Cc2ccccc2)C(=O)N[C@@H]([C@@H](C)O)C(=O)N[C@H](C(=O)N2CCCCC2)Cc2ccc(cc2)CCCCCC(=O)N[C@@H](C)C(=O)N1C [DP-847] (A[NMeI][NMeL][NMeF]L[NMeV]FT[Phe(4-(CH2)5CO)]-Piperidide; lactam N-9) | 3.3 ×10⁻⁶ cm/s | 329 µL/min/mg | – | – | –
CC(C)C[C@H]1C(=O)N[C@@H](COC(C)(C)C)C(=O)N(C)[C@@H](Cc2ccccc2)C(=O)N(C)[C@@H](C)C(=O)N[C@@H](Cc2ccccc2)C(=O)N(C)[C@@H](C(C)C)C(=O)N[C@H](C(=O)N2CCCCC2)Cc2ccc(cc2)CCCCCC(=O)N[C@@H]([C@@H](C)O)C(=O)NCC(=O)N1C [DP-848] (TG[NMeL]S(tBu)[NMeF][NMeA]F[NMeV][Phe(4-(CH2)5CO)]-Piperidide; lactam N-9) | 30 ×10⁻⁶ cm/s | 148 µL/min/mg | – | – | –
CC[C@H](C)[C@H]1C(=O)N[C@@H](COC(C)(C)C)C(=O)N(C)[C@@H](Cc2ccccc2)C(=O)N(C)[C@@H](C(C)C)C(=O)N[C@H](C(=O)N2CCCCC2)Cc2ccc(cc2)CCCCCC(=O)N(C)[C@@H](Cc2ccccc2)C(=O)N[C@@H](CC(C)C)C(=O)N(C)[C@@H](CC(C)C)C(=O)N[C@@H]([C@@H](C)O)C(=O)N(C)CC(=O)N1C [DP-852] ([NMeF]L[NMeL]T[Sar][NMeI]S(tBu)[NMeF][NMeV][Phe(4-(CH2)5CO)]-Piperidide; lactam N-10) | 0.7 ×10⁻⁶ cm/s | 484 µL/min/mg | – | – | –
CC[C@H](C)[C@H]1C(=O)N[C@@H]([C@@H](C)O)C(=O)N(C)CC(=O)N(C)[C@@H](CC(C)C)C(=O)N[C@H](C(=O)N2CCCCC2)Cc2ccc(cc2)CCCCCC(=O)N[C@@H](CC(C)C)C(=O)N(C)[C@@H](CC(C)C)C(=O)N(C)[C@@H](Cc2ccccc2)C(=O)N[C@@H](C)C(=O)N(C)[C@@H](Cc2ccccc2)C(=O)N1C [DP-856] (L[NMeL][NMeF]A[NMeF][NMeI]T[Sar][NMeL][Phe(4-(CH2)5CO)]-Piperidide; lactam N-10) | 0.44 ×10⁻⁶ cm/s | 183 µL/min/mg | – | – | –
CC(C)C[C@H]1C(=O)N(C)[C@@H](CC(C)C)C(=O)N[C@@H](C)C(=O)N(C)[C@@H](CC(C)C)C(=O)N(C)[C@@H](Cc2ccccc2)C(=O)N(C)[C@@H](Cc2ccccc2)C(=O)N[C@@H]([C@@H](C)O)C(=O)N(C)[C@@H](C)C(=O)N(C)[C@@H](CC(C)C)C(=O)N[C@H](C(=O)N2CCCCC2)Cc2ccc(cc2)CCCCCC(=O)N1C [DP-858] ([NMeL][NMeL]A[NMeL][NMeF][NMeF]T[NMeA][NMeL][Phe(4-(CH2)5CO)]-Piperidide; lactam N-10) | 1 ×10⁻⁶ cm/s | 77 µL/min/mg | – | – | –
CC[C@H](C)[C@@H]1NC(=O)[C@H](Cc2ccccc2)N(C)C(=O)CCCCCc2ccc(cc2)C[C@@H](C(=O)N2CCCCC2)NC(=O)[C@H](C(C)C)N(C)C(=O)[C@H](Cc2ccccc2)N(C)C(=O)[C@H](COC(C)(C)C)NC(=O)[C@H](CC(C)C)N(C)C(=O)CN(C)C(=O)[C@H]([C@@H](C)O)NC(=O)[C@H](CC(C)C)N(C)C1=O [DP-861] ([NMeF]I[NMeL]T[Sar][NMeL]S(tBu)[NMeF][NMeV][Phe(4-(CH2)5CO)]-Piperidide; lactam N-10) | 2.9 ×10⁻⁶ cm/s | 320 µL/min/mg | – | – | –
CC[C@H](C)[C@@H]1NC(=O)[C@H](CC(C)C)N(C)C(=O)CCCCc2cccc(c2)C[C@@H](C(=O)N2CCCCC2)NC(=O)[C@H](CC(C)C)N(C)C(=O)[C@H](C)N(C)C(=O)[C@H]([C@@H](C)O)NC(=O)[C@H](CC(C)C)N(C)C(=O)[C@H](COC(C)(C)C)NC(=O)[C@H](Cc2ccccc2)N(C)C(=O)[C@H](Cc2ccccc2)N(C)C1=O [DP-862] ([NMeL]I[NMeF][NMeF]S(tBu)[NMeL]T[NMeA][NMeL][Phe(3-(CH2)4CO)]-Piperidide; lactam N-10) | – | 118 µL/min/mg | – | – | 1.0E−07
CCN1C(=O)CCCCc2cccc(c2)C[C@@H](C(=O)N2CCCCC2)NC(=O)[C@H](CC(C)C)N(C)C(=O)CN(C)C(=O)[C@H]([C@@H](C)O)NC(=O)[C@H](CC(C)C)N(C)C(=O)[C@H](Cc2ccccc2)N(C)C(=O)[C@H](C)NC(=O)[C@@H]1Cc1ccccc1 [DP-863] ([NEtPhe]A[NMeF][NMeL]T[Sar][NMeL][Phe(3-(CH2)4CO)]-Piperidide; lactam N-8) | – | – | 35 ×10⁻⁶ cm/s | 927 µL/min/mg | –
C=C1CCC(=O)N[C@@H](CC(C)C)C(=O)N(C)[C@@H](CC(C)C)C(=O)N(C)[C@@H]([C@@H](C)CC)C(=O)N[C@@H](C)C(=O)N(C)[C@@H](Cc2ccccc2)C(=O)N[C@@H]([C@@H](C)O)C(=O)N(C)CC(=O)N(C)[C@@H](Cc2ccccc2)C(=O)N(C)[C@@H](CC(C)C)C(=O)N[C@H](C(=O)N2CCCCC2)Cc2ccc1cc2 [DP-864] | 2.3 ×10⁻⁶ cm/s | 171 µL/min/mg | – | – | –
